The text below walks through data of ChEMBL document CHEMBL5465560, “Selectivity Literature for EUbOPEN Chemogenomic Library” (2024).

Assay [1] addresses T1, Protein kinase C iota type (Homo sapiens) (UniProt P41743).
T1 sequence (whole entry): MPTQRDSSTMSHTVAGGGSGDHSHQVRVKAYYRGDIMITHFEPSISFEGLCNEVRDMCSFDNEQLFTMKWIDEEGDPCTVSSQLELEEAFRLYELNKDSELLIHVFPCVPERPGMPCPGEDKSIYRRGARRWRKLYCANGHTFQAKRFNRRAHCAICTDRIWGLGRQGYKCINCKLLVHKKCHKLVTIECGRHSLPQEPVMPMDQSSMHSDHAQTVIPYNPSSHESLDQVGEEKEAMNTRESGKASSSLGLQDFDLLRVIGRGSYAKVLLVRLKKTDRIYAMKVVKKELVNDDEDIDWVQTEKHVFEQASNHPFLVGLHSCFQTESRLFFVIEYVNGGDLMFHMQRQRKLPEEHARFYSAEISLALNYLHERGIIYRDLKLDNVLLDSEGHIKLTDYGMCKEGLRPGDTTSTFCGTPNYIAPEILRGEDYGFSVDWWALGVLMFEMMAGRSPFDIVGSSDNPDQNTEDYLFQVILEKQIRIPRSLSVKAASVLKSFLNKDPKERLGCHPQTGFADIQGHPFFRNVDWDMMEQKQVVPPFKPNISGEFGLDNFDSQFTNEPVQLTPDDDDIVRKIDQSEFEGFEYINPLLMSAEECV
The following applies: at 10 µM.

Assay [2] concerns the target T2, Dual specificity tyrosine-phosphorylation-regulated kinase 2 (Homo sapiens) (UniProt Q92630).
T2 sequence (whole entry): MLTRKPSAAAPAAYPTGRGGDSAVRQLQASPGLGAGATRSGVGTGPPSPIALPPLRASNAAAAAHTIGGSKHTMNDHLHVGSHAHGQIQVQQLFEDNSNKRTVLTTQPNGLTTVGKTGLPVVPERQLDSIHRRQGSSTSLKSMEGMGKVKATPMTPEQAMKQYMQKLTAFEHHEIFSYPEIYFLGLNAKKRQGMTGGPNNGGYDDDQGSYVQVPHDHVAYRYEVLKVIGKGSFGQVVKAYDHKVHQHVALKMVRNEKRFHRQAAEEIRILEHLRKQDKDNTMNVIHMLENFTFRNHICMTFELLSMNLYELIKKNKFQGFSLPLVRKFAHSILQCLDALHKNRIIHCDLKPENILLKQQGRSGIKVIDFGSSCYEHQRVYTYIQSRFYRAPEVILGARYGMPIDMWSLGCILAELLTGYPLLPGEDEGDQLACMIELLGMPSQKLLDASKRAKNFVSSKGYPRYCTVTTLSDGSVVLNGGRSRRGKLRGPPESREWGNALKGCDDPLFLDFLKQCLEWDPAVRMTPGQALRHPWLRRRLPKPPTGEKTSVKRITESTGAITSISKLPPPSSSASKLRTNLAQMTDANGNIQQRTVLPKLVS
The following applies: at 10 µM.

Assay [3] has as its target Mitogen-activated protein kinase kinase kinase 9 (Homo sapiens) (UniProt P80192). The assay is described as follows: Selectivity interaction (Ambit KINOMEscan and KiNATiv profiling in Jurkat cells) EUB0000090b MAP3K9. The class given is cell-based. The conditions noted are these: at 1 µM.
The target of assay [4] is PAS domain-containing serine/threonine-protein kinase (Homo sapiens) (UniProt Q96RG2). The assay is described as follows: Selectivity interaction (KinaseProfiler screening (Millipore)) EUB0000601a PASK. The following applies: at 3 µM.
The target in assay [5] is T3, Inhibitor of nuclear factor kappa-B kinase subunit beta (Homo sapiens) (UniProt O14920).
T3 sequence (whole entry): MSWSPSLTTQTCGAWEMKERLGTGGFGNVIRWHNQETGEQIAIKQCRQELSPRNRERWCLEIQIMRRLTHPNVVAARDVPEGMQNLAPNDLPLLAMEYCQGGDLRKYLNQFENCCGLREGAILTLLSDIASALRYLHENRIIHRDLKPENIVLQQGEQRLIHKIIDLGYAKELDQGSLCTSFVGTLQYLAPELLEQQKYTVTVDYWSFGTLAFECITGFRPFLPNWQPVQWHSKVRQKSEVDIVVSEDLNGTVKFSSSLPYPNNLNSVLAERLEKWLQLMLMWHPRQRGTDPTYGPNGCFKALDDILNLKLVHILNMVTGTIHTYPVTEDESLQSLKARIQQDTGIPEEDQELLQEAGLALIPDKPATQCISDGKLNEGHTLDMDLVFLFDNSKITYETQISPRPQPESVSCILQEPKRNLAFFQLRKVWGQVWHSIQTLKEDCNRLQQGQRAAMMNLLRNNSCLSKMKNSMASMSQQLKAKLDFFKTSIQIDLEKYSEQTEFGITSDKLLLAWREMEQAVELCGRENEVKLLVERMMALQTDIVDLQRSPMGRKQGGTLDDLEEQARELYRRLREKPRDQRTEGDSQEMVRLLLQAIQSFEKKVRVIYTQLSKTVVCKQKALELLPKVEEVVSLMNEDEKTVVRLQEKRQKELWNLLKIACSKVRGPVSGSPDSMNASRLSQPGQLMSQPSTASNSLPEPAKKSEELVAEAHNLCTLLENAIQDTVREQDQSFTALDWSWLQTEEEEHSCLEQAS
The assay is described as follows: Selectivity interaction (Millipore kinase profiler) EUB0000124b IKBKB. The conditions noted are these: at 10 µM.

Assay [6] has as its target Tyrosine-protein kinase CSK (Homo sapiens) (UniProt P41240). The assay is described as follows: Selectivity interaction (Kinase screening (Nanosyn)) EUB0000604a CSK.
For assay [7], the target named is Glucocorticoid receptor (Homo sapiens) (UniProt P04150). The assay is described as follows: Selectivity interaction (Panel of non-epigenetic targets (kinases, GPCRs, ion channels, and transporters, Eurofins) ) EUB0000271b NR3C1. The conditions noted are these: at 1 µM.
For assay [8], the target named is Protein polybromo-1 (Homo sapiens) (UniProt Q86U86). Nature of the assay: Selectivity interaction (Bromodomain panel (DSF asssay)) EUB0000270b PBRM1.
Assay [9] concerns the target Nuclear body protein SP140 (Homo sapiens) (UniProt Q13342). Nature of the assay: Selectivity interaction (Bromodomain panel (DSF asssay)) EUB0000270b SP140.
The target in assay [10] is Receptor-interacting serine/threonine-protein kinase 2 (Homo sapiens, UniProt O43353). Nature of the assay: Selectivity interaction (LanthaScreen Eu Kinase Binding Assay) EUB0001632a RIPK2. The following applies: at 10 µM. (TR-FRET usually uses a lanthanide donor and a delayed reading to cut background.)
Assay [11] addresses Serine/threonine-protein kinase 24 (Homo sapiens) (UniProt Q9Y6E0). Nature of the assay: Selectivity interaction (ActivX KiNativ screen (kinase selectivity in THP-1 cell lysates)) EUB0000639a STK24. Format: subcellular. The conditions noted are these: lysate, at 0.04 µM.
The target of assay [12] is Bone morphogenetic protein receptor type-1B (Homo sapiens, UniProt O00238). The assay is described as follows: Selectivity interaction (KinomeScan (DiscoverX)) EUB0000229b BMPR1B. The conditions noted are these: at 10 µM.
For assay [13], the target named is Mitogen-activated protein kinase kinase kinase kinase 4 (Homo sapiens, UniProt O95819). The assay is described as follows: Selectivity interaction (KinomeScan (DiscoverX)) EUB0001619a MAP4K4. The following applies: at 1 µM.
Assay [14] addresses Ribosomal protein S6 kinase beta-1 (Homo sapiens, UniProt P23443). Nature of the assay: Selectivity interaction (Kinase panel (literature)) EUB0001199aCl RPS6KB1. The conditions noted are these: at 1 µM.

Nuclear body protein SP140 (Homo sapiens), sequence (Q13342 whole entry): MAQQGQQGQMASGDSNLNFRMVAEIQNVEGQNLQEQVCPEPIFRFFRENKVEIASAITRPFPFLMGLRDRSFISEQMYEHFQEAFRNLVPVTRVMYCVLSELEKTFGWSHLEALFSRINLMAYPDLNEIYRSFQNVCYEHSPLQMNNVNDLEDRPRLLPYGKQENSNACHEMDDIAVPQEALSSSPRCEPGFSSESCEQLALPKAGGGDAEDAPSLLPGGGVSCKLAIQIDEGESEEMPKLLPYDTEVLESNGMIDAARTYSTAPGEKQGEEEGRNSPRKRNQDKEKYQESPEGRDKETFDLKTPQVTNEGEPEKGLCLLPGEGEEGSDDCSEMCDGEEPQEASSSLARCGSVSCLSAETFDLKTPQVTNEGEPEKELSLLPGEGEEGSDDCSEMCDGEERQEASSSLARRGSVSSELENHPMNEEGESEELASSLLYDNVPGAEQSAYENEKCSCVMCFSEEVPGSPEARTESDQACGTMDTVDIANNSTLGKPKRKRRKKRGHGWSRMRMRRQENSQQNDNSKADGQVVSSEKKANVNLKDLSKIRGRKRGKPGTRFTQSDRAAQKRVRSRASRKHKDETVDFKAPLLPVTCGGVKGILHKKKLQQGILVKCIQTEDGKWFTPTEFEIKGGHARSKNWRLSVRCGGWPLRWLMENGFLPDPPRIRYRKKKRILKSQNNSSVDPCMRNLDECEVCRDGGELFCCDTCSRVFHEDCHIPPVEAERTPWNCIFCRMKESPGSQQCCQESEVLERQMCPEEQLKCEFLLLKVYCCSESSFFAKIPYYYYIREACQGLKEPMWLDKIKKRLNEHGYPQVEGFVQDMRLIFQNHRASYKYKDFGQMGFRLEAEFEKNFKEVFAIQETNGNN
Bone morphogenetic protein receptor type-1B, sequence (O00238 whole entry): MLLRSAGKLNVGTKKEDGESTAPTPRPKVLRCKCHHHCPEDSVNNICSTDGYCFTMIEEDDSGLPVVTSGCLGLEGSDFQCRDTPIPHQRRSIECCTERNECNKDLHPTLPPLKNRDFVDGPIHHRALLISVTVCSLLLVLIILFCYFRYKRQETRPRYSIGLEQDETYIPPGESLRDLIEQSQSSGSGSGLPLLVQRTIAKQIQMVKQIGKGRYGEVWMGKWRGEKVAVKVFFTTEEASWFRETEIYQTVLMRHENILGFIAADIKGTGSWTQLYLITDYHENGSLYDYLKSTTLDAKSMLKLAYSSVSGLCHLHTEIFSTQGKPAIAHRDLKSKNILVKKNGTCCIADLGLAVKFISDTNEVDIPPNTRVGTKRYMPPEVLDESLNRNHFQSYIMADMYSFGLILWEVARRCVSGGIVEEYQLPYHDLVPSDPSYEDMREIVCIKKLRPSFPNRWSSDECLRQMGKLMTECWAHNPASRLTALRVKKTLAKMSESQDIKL
Mitogen-activated protein kinase kinase kinase kinase 4, sequence (O95819 2-1239 limits assumed): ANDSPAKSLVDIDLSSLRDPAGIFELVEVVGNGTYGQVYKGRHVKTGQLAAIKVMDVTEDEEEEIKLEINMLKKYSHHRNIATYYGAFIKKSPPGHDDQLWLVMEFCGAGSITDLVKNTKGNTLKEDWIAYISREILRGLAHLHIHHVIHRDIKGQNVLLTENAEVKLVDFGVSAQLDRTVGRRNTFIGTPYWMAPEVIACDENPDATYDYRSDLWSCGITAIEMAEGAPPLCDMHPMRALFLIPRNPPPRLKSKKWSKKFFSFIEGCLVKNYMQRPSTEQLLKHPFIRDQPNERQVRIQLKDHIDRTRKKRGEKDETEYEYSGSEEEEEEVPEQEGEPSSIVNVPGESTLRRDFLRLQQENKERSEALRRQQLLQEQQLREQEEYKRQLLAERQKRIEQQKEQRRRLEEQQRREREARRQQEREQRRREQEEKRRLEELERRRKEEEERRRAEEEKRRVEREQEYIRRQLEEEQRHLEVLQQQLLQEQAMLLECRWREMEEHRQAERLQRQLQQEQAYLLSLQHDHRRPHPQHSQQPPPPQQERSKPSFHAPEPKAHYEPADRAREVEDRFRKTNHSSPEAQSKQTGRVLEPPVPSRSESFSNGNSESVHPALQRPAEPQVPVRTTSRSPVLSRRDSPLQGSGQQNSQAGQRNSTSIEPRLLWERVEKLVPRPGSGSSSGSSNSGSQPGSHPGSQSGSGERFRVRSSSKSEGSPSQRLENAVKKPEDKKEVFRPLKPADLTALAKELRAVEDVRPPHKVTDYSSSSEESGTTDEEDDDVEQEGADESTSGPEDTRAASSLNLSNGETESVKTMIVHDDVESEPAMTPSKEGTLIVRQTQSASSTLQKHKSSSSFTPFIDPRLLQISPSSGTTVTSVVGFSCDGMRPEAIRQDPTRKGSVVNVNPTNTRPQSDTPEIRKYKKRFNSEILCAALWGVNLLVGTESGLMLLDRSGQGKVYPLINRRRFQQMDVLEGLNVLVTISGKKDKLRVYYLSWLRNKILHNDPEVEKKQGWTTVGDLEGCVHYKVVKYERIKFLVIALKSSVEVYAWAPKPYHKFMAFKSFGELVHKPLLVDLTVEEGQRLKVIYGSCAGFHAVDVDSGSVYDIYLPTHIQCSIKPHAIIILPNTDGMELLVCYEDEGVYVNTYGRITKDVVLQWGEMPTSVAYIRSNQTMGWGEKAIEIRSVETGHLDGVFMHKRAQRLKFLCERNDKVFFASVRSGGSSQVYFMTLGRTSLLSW
Ribosomal protein S6 kinase beta-1, sequence (P23443 whole entry, looked up): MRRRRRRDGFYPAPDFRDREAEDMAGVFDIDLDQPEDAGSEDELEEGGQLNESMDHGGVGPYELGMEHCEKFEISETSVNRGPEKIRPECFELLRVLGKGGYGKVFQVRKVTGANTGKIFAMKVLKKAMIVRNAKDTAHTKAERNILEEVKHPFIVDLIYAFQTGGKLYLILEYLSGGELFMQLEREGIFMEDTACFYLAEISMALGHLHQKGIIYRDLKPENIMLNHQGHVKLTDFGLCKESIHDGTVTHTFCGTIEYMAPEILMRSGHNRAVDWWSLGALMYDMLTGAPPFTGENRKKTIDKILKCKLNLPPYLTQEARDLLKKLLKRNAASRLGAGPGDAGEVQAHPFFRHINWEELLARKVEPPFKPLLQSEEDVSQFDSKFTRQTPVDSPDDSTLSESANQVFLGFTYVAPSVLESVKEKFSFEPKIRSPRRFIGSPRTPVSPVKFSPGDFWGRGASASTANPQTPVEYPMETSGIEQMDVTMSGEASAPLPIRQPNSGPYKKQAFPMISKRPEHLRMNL
Glucocorticoid receptor (Homo sapiens), sequence (P04150 whole entry): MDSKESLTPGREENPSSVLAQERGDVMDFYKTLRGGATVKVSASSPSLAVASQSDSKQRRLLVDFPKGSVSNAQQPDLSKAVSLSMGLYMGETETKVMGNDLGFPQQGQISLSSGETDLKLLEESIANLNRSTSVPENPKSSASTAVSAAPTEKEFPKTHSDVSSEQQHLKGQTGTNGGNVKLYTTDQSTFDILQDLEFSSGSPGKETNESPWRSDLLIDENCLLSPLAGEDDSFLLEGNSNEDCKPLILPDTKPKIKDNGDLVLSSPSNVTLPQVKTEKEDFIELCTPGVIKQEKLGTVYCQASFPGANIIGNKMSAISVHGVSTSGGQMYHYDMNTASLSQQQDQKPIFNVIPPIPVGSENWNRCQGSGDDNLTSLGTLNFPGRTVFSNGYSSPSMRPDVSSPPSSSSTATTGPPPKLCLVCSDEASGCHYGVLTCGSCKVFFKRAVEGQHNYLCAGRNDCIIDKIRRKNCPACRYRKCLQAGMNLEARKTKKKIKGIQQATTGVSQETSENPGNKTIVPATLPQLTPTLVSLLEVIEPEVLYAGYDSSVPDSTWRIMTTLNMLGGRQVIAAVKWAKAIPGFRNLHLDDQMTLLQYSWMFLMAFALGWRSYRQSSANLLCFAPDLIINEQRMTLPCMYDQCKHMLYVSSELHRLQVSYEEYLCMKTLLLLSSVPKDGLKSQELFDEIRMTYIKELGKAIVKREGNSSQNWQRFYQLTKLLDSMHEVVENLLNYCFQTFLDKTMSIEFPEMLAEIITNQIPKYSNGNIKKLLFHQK
Receptor-interacting serine/threonine-protein kinase 2, sequence (O43353 whole entry): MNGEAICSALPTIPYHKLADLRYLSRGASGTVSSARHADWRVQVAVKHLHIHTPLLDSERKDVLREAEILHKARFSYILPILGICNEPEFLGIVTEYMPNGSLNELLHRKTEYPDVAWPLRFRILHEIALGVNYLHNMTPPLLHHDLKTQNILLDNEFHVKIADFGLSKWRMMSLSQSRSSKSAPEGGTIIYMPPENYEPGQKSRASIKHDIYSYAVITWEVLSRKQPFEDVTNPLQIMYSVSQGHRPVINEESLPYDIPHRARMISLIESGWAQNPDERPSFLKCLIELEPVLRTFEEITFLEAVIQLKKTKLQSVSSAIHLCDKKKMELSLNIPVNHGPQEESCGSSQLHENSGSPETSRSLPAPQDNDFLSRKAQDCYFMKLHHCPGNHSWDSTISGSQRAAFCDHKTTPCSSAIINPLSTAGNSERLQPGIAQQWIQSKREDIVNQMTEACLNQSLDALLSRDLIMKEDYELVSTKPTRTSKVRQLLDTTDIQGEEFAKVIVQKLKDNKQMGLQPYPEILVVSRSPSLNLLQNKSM
Tyrosine-protein kinase CSK (Homo sapiens), sequence (P41240 2-450 limits assumed): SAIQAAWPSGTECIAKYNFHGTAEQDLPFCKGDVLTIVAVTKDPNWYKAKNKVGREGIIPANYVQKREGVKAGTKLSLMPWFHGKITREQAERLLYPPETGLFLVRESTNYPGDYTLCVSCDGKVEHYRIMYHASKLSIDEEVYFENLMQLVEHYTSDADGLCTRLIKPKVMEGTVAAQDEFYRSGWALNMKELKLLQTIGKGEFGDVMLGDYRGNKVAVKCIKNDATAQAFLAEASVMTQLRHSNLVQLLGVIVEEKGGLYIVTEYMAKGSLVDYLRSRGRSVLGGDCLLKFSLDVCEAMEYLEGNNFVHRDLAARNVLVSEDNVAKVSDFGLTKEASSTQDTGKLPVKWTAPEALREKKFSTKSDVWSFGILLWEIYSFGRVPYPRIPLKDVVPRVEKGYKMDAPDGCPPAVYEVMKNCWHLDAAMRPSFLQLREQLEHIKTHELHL

Regarding `Cc1cc([C@@H](C)Nc2ccccc2C(=O)O)c2nc(N3CCOCC3)cc(=O)n2c1` [AZD-6482], the % of control in assay [1] was 100%; in [2], 89%. `CN(C)C/C=C/C(=O)Nc1ccc(C(=O)N2CCCC(Nc3ncc(Cl)c(-c4c[nH]c5ccccc45)n3)C2)cc1` (centres undefined) gave a % of control in assay [3] of 100%.

As to `CCc1cc(Nc2nccc(-c3c(-c4ccc(OC)c(C(=O)Nc5c(F)cccc5F)c4)nc4ccccn34)n2)c(OC)cc1N1CCC(N2CCN(S(C)(=O)=O)CC2)CC1`, in assay [4], the % of inhibition was found to be 65%.

`CC(=O)Nc1cccc(-n2c(=O)n(C3CC3)c(=O)c3c(Nc4ccc(I)cc4F)n(C)c(=O)c(C)c32)c1` came in with a % of control in assay [5] of 111%. For the compound `Cc1cnc(Nc2ccc(F)cc2Cl)nc1-c1c[nH]c(C(=O)N[C@H](CO)c2cccc(Cl)c2)c1`, the % of inhibition in assay [6] was determined as 3%. Regarding `Cc1cc(C)cc([C@@H]2c3cc(C)ccc3NC(=O)CN2C(=O)c2ccc(Br)s2)c1`, in [7], the % of inhibition is 15%. Take `Cc1cc(CN)cc(C)c1-c1ncn(C)c1-c1cncn1C`: the dTM in assay [8] is -0.44 K; in assay [9], -1.11 K. Regarding `Cn1cc(-n2cnc3c(NCc4nc5cc(Cl)c(Cl)cc5[nH]4)nc(N4CCOCC4)nc32)cn1`, the % of inhibition in [10] was -13.3%.

On to `CC[C@@H]1[C@H](F)C(=O)N[C@@H]1COc1nccc2cc(C(N)=O)c(OC)cc12` [ZIMLOVISERTIB], for which the % of inhibition in [11] stood at 13.3%.

In the case of `COc1cc(N(C)c2ccnc3ccc(C(F)(F)F)cc23)cc(OC)c1OC`, in assay [12], the % binding amounted to 73%. In turn, `N#Cc1cccc(-c2c[nH]c3ncnc(N4CCOCC4)c23)c1` gave a % of control in assay [13] of 71%. Regarding `CN1Cc2nccc(-c3cn(C)nc3-c3ccc(F)cc3)c2C1=O`, the % of inhibition in assay [14] is -3%.
